Source: US8871751B2, “Compositions and methods relating to nuclear hormone and steroid hormone receptors including inhibitors of estrogen receptor alpha-mediated gene expression and inhibition of breast cancer” (The Board of Trustees of the University of Illinois, priority 2008, dated 2014)

What was measured:
[1] = target: T1, GR (Rattus norvegicus, UniProt P06536); test: GR transactivation, MMTV-luciferase reporter in T47D cells; type: cell-based, human
T1 construct: expressed in transfected cells; host or cells: T47D/A1-2
T1 sequence (P06536 1-795): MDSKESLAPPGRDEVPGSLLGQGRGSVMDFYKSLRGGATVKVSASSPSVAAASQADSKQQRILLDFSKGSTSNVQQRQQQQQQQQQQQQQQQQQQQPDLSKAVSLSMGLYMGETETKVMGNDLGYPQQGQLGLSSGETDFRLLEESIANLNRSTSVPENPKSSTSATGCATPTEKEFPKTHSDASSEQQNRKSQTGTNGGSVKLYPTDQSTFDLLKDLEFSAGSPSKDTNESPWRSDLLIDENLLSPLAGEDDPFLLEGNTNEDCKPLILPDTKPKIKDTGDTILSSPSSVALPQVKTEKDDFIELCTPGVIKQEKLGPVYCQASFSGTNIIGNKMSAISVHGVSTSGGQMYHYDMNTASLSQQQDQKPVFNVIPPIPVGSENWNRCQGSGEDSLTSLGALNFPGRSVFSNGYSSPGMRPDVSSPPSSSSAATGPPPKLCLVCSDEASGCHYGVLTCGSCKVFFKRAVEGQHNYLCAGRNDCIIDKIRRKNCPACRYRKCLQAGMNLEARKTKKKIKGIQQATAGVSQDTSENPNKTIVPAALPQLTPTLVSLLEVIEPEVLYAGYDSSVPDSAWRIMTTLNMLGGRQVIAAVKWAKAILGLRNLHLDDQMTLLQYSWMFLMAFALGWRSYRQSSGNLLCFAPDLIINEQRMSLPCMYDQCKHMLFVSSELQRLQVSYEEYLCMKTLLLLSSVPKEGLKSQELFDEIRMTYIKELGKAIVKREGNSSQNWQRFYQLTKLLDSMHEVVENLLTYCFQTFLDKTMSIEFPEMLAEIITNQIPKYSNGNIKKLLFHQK
Method: The T47D-KBluc cells stably express an (ERE)3-luciferase reporter gene (38). Cells were maintained in phenol red-free RPMI 1640 with 2 mM L-glutamine, 1.5 g/l sodium bicarbonate, 4.5 g/l glucose, 10 mM Hepes, pH 7.5, 1 mM sodium pyruvate, 10% FBS (Atlanta Biological, Atlanta, Ga.) and antibiotics. Four days before E2 induction, the cells were switched to the above medium, with 10% 2× charcoal-dextran-treated calf serum instead of FBS. 200,000 cells/well were transferred to each well of a 24-well plate. After 24 h the indicated concentrations of the test compounds were added in DMSO and E2 was added to 20 pM. After 24 h cells were washed once in PBS, and 150 μl 1× Passive Lysis Buffer (Promega, Madison Wis.) was used to lyse the cells. Luciferase activity was determined using firefly luciferase reagents from Promega (Madison, Wis.). T47D cells stably transfected to express GR and a mouse mammary tumor virus luciferase reporter that responds to liganded GR and PR were maintained and assayed in medium containing 5 nM progesterone for PR assays, or 2.5 nM dexamethsaone for GR assays, essentially as described (39).
Reporter Gene Assays. TPSF was identified by reporter gene assays comparing the ability of ˜200 compounds structurally related to TPBM (see reference 19) to inhibit transcription of a stably transfected (ERE)3-luciferase reporter gene in T47D-KBluc breast cancer cells (20). AR was assayed in stably transfected HeLa cells and GR was assayed in stably transfected T47D cells maintained as described above. Four days before each experiment the cells were switched to medium containing CD-treated serum as described above. The HeLaAR cells were plated at 100,000 cells/well and the T47D/A1-2 and T47D-KBluc cells were plated at 200,000 cells/well in 1 ml of their respective media in 24-well plates. After 24 hours the indicated concentrations of E2, dihydrotestosterone (DHT) or dexamethasone (Dex) and DMSO vehicle, with or without TPSF, were added to each well. After 24 hours, the cells were washed once in phosphate buffered saline and lysed using 100 μl of 1× Passive Lysis Buffer (Promega, Madison Wis.). Luciferase activity was determined using BrightGlo firefly luciferase reagent from Promega (Madison, Wis.).

[2] = tested on: ZR-75 cells; test: E2-ERα-dependent growth of ZR-75 cells (MTS); type: cell-based; settings: Homo sapiens, ZR75, 96 h, 100 pM E2, 4 days, read-out: IC50 for inhibition of E2-ERα-dependent growth of ZR-75 cells
Method: FIG. 20 illustrates further activity of TPSF in the inhibition of tamoxifen-resistant human breast cancer cells. The effects of TPSF on the E2-ERα-dependent growth of tamoxifen-resistant BT474 and ZR-75 cells were assessed. […] The cells were maintained in medium containing 10% CD-FBS (ZR-75) or 10% CD-CS (BT474) containing or lacking 100 pM E2 and the indicated concentrations of TPSF. Viable cells were measured by comparison to a standard curve of cell number versus absorbance using the MTS assay. Data represents the average of at least 4 wells. IC50 values for TPSF inhibition of cell growth were calculated by curve-fitting using Sigma Plot.
Assays for Cell Growth and Viability. Cells were maintained in the media listed above containing CD-treated serum for at least 4 days prior to the experiment. To minimize cell aggregation, MCF-7 cells were harvested in 10 mM Hepes, pH 7.4, 1 mM EDTA. Other cell lines were harvested in trypsin-EDTA. 1,000 cells were plated into each well of a 96 well plate. For slow growing ZR-75 cells, 2,000 cells were plated/well. The cells were maintained in medium containing CD-treated serum for 24 hours. At 24 hours the medium was changed and E2 and DMSO vehicle or TPSF in DMSO was added. […] After 4 days viable cells were determined using a cell viability test, Promega CellTiter 96 Aqueous One Solution Cell Proliferation Assay (MTS) (Promega, Wis.).

Row | inhibition at 30 µM ([1]; T47D, 30 μM, 2.5 nM dexamethasone) | effect on GR transactivation ([1]; up to 20 μM, 2.5 nM dexamethasone) | IC50 ([1]; stably transfected T47D cells, 100 nM Dex, 24 h, read-out: IC50 for inhibition of GR gene expression (MMTV-Luc)) | Structure (SMILES) | IC50 [2]
1 | ~35% | did not inhibit | – | Cn1c(=O)c2nc(CSCc3ccccc3)[nH]c2n(C)c1=O [Compound 95910, 8-Benzylsulfanylmethyl-1,3-dimethyl-3,7-dihydro-purine-2,6-dione] | –
2 | – | – | 10 µM | Cn1c(=S)c2[nH]c(SCCCC(=O)c3ccc(F)cc3)nc2n(C)c1=O [TPSF, Butyrophenone, p-fluoro-4-(1,2,3,6,-tetrahydro-1,3-dimethyl-2-oxo-6-thionopurin-8-ylthio)] | 0.9 µM
